For data set [1], the system named is HBV replication in HepAD38 cells. The data set can be described thus: Anti-HBV replication assay in HepAD38 cells (QPCR of extracellular HBV DNA). The class given is cell-based, HBV (genotype D, serotype ayw). Particulars: Hepatitis B virus, 168 h, 7 days incubation, extracellular HBV DNA by QPCR, read-out: Anti-HBV EC50. Summed up: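 HepAD38 cells (HepG2 carrying tet-repressible HBV genotype D genome) induced by tetracycline withdrawal, treated 7 days at 37 °C with compound ([…], 1-log10 dilutions). Extracellular HBV DNA quantified by QPCR against a standard curve, normalised to DMSO; EC50 from 4-parameter fit.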

Data set [2] can be described thus: In vitro cytotoxicity assay (MTT cell viability) in HepG2 cells. Particulars: human. The data set is classed as cell-based, human. An outline of the steps: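 HepG2 seeded overnight, then 7-day compound exposure (30 μM–1.0 nM, half-log steps), 37 °C. MTT 3-4 h, DMSO solubilization, A492. % of vehicle → CC50, 4-PL fit.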

pEC50: −log10 of the molar value.

Usually pEC50 stands for the EC50 on a negative log10 scale, so that one unit is a factor of ten. What is called CC50 is the concentration giving 50% cytotoxicity. A high value points to better tolerance by the cells. In the case of `Cc1cc(NC(=O)c2c(C)c(C(=O)C(=O)N[C@@]3(C)CC[C@@H](O)C3)n(C)c2C)ccc1F` [Example 722, N-(4-fluoro-3-methylphenyl)-5-(2-(((1S,3R)-3-hydroxy-1-methylcyclopentyl)amino)-2-oxoacetyl)-1,2,4-trimethyl-1H-pyrrole-3-carboxamide], the pEC50 in data set [1] was more than 7.30. The molecule also yielded a CC50 at 7 days in data set [2] of more than 30000 nM.

For the molecule `Cc1cc(NC(=O)c2c(C)c(C(=O)C(=O)NOC(C)(C)CO)n(C)c2C)ccc1F` [Example 156, N-(4-fluoro-3-methylphenyl)-5-(2-(((1-hydroxy-2-methylpropan-2-yl)oxy)amino)-2-oxoacetyl)-1,2,4-trimethyl-1H-pyrrole-3-carboxamide], the pEC50 in data set [1] was more than 7.30. Further, the CC50 at 7 days in data set [2] is more than 30000 nM.

Regarding `Cc1c(C(=O)Nc2ccc(F)nc2)c(C)n(C)c1C(=O)C(=O)N[C@H](C)C(F)(F)F` [Example 166, (R)-N-(6-fluoropyridin-3-yl)-1,2,4-trimethyl-5-(2-oxo-2-((1,1,1-trifluoropropan-2-yl)amino)acetyl)-1H-pyrrole-3-carboxamide], the pEC50 in data set [1] was more than 7.30. Also, the half-maximal cytotoxic concentration (CC50) at 7 days in data set [2] is more than 30000 nM.

As to `Cc1c(C(=O)Nc2ccc(F)c(Cl)c2)c2n(c1C(=O)C(=O)N[C@H]1C[C@H](O)C1)CCCC2` [Example 449, N-(3-chloro-4-fluorophenyl)-3-(2-(((1r,3r)-3-hydroxycyclobutyl)amino)-2-oxoacetyl)-2-methyl-5,6,7,8-tetrahydroindoliziine-1-carboxamide], the pEC50 in data set [1] was 6.30 to 7.30. The molecule also gave a cytotoxic concentration (CC50) at 7 days in data set [2] of more than 30000 nM.

Turning to `Cc1cc(NC(=O)c2c(C)c(C(=O)C(=O)NC34CC5CC(CC(O)(C5)C3)C4)n(C)c2C)cnc1F` [Example 114, N-(6-fluoro-5-methylpyridin-3-yl)-5-(2-(((1r,3s,5R,7S)-3-hydroxyadamantan-1-yl)amino)-2-oxoacetyl)-1,2,4-trimethyl-1H-pyrrole-3-carboxamide], the negative-log EC50 (pEC50) in data set [1] is more than 7.30. This molecule also returned a half-maximal cytotoxic concentration (CC50) at 7 days in data set [2] of more than 30000 nM.

As for `Cc1cc(NC(=O)c2c(C)c(C(=O)C(=O)N[C@H]3CC[C@@H](CO)CC3)n(C)c2C)ccc1F` [Example 676, N-(4-fluoro-3-methylphenyl)-5-(2-(((1s,4s)-4-(hydroxymethyl)cyclohexyl)amino)-2-oxoacetyl)-1,2,4-trimethyl-1H-pyrrole-3-carboxamide], the pEC50 in data set [1] is more than 7.30. In data set [2], this molecule had a CC50 at 7 days of more than 30000 nM.

As for `Cc1cc(NC(=O)c2c(C)c(C(=O)C(=O)NC3(C(F)(F)F)CCOCC3)n(CCF)c2C)ccc1F` [Example 230, N-(4-fluoro-3-methylphenyl)-1-(2-fluoroethyl)--2,4-dimethyl-5-(2-oxo-2-((4-(trifluoromethyl)tetrahydro-2H-pyran-4-yl)amino)acetyl)-1H-pyrrole-3-carboxamide], the pEC50 in data set [1] is more than 7.30. In data set [2], the CC50 at 7 days is more than 30000 nM.

Consider `COC(=O)[C@@H](NC(=O)C(=O)c1c(C)c(C(=O)Nc2ccc(F)c(C)c2)c(C)n1C)[C@H](C)O` [Example 45, methyl (2-(4-((4-fluoro-3-methylphenyl)carbamoyl)-1,3,5-trimethyl-1H-pyrrol-2-yl)-2-oxoacetyl)-L-allothreoninate], for which, in data set [1], the pEC50 is 6.00 to 6.30. Moreover, the CC50 at 7 days in data set [2] is more than 30000 nM.

In the case of `Cc1c(C(=O)Nc2ccc(F)c(Cl)c2)c(C)n(C)c1C(=O)C(=O)NC1CCC(F)(F)CC1` [Example 314, N-(3-chloro-4-fluorophenyl)-5-(2-((4,4-difluorocyclohexyl)amino)-2-oxoacetyl)-1,2,4-trimethyl-1H-pyrrole-3-carboxamide], the pEC50 in data set [1] is more than 7.30. Also, the CC50 at 7 days in data set [2] fell in the range of 5000 to 30000 nM.

For the molecule `Cc1noc([C@@H](C)NC(=O)C(=O)c2c(Cl)c(C(=O)Nc3ccnc(F)c3)c3n2CCCC3)n1` [Example 510, (R)-2-chloro-N-(2-fluoropyridin-4-yl)-3-(2-((1-(3-methyl-1,2,4-oxadiazol-5-yl)ethyl)amino)-2-oxoacetyl)-5,6,7,8-tetrahydroindolizine-1-carboxamide], the pEC50 in data set [1] is less than 6.00. In data set [2], this molecule came in with a CC50 at 7 days of more than 30000 nM.

In the case of `Cc1cc(NC(=O)c2c(C)c(C(=O)C(=O)NC3(c4noc(-c5cccs5)n4)CCCCC3)n(C)c2C)ccc1F` [Example 634], the pEC50 in data set [1] was more than 7.30. In data set [2], this molecule came in with a CC50 at 7 days of more than 30000 nM.

On to `Cc1cc(NC(=O)c2c(C)c(C(=O)C(=O)NC3(CO)CCC3)n3c2CCCC3)ccc1F` [Example 442, N-(4-fluoro-3-methylphenyl)-3-(2-((1-(hydroxymethyl)cyclobutyl)amino)-2-oxoacetyl)-2-methyl-5,6,7,8-tetrahydroindolizine-1-carboxamide], for which the pEC50 in data set [1] is more than 7.30. The molecule further had a CC50 at 7 days in data set [2] of 5000 to 30000 nM.

Take `Cc1cc(NC(=O)c2c(C)c(C(=O)C(=O)NC(C)(C)C(F)(F)F)n(C)c2C)cnc1F` [Example 173, N-(6-fluoro-5-methylpyridin-3-yl)-1,2,4-trimethyl-5-(2-oxo-2-((1,1,1-trifluoro-2-methylpropan-2-yl)amino)acetyl)-1H-pyrrole-3-carboxamide]: the pEC50 in data set [1] is more than 7.30. The molecule also displayed a 50% cytotoxic concentration (CC50) at 7 days in data set [2] of more than 30000 nM.

Take `CCOC(=O)[C@@H](CO)NC(=O)C(=O)c1c(C)c(C(=O)Nc2ccc(F)c(C)c2)c(C)n1C` [Example 26, ethyl (2-(4-((4-fluoro-3-methylphenyl)carbamoyl)-1,3,5-trimethyl-1H-pyrrol-2-yl)-2-oxoacetyl)-D-serinate]: the pEC50 in data set [1] is more than 7.30. Besides, the CC50 at 7 days in data set [2] was more than 30000 nM.

For `Cc1noc([C@@H](C)NC(=O)C(=O)c2c(Cl)c(C(=O)Nc3ccc(F)c(Cl)c3)c3n2CCCC3)n1` [Example 524, (R)-2-chloro-N-(3-chloro-4-fluorophenyl)-3-(2-((1-(3-methyl-1,2,4-oxadiazol-5-yl)ethyl)amino)-2-oxoacetyl)-5,6,7,8-tetrahydroindolizine-1-carboxamide], the pEC50 in data set [1] is 6.30 to 7.30. Further, the CC50 at 7 days in data set [2] was in the range of 5000 to 30000 nM.

In the case of `Cc1cc(NC(=O)c2cc(C(=O)C(=O)NC(C)(C)C)n3c2CNCC3)ccc1F` [Example 588, 6-(2-(tert-butylamino)-2-oxoacetyl)-N-(4-fluoro-3-methylphenyl)-1,2,3,4-tetrahydropyrrolo[1,2-a]pyrazine-8-carboxamide], the pEC50 in data set [1] is 6.30 to 7.30. The molecule also showed a CC50 at 7 days in data set [2] of 5000 to 30000 nM.

`Cc1cc(NC(=O)c2c(C)c(C(=O)C(=O)NC(C)(C)C(=O)O)n(C)c2C)ccc1F` [Example 29, 2-(2-(4-((4-fluoro-3-methylphenyl)carbamoyl)-1,3,5-trimethyl-1H-pyrrol-2-yl)-2-oxoacetamido)-2-methylpropanoic acid]: the pEC50 in data set [1] was 6.00 to 6.30. Besides, the CC50 at 7 days in data set [2] is more than 30000 nM.

As to `CC[C@@H](CO)NC(=O)C(=O)c1c(C)c(C(=O)Nc2cnc(F)c(C)c2)c(C)n1C` [Example 186, (S)-N-(6-fluoro-5-methylpyridin-3-yl)-5-(2-((1-hydroxybutan-2-yl)amino)-2-oxoacetyl)-1,2,4-trimethyl-1H-pyrrole-3-carboxamide], in data set [1], the pEC50 was 6.30 to 7.30. The CC50 at 7 days in data set [2] is more than 30000 nM.

Take `Cc1cc(NC(=O)c2c(C)c(C(=O)C(=O)NC3(C(=O)NC(C)(C)CO)CCOCC3)n(C)c2C)ccc1F` [Example 681, N-(4-fluoro-3-methylphenyl)-5-(2-((4-((1-hydroxy-2-methylpropan-2-yl)carbamoyl)tetrahydro-2H-pyran-4-yl)amino)-2-oxoacetyl)-1,2,4-trimethyl-1H-pyrrole-3-carboxamide]: the pEC50 in data set [1] is more than 7.30. In data set [2], this molecule displayed a CC50 at 7 days of more than 30000 nM.

For the origin of these results see patent US20190375708A1 (VenatoRx Pharmaceuticals, Inc., priority 2018, published 2019).
